From US7994140B2, “Classes of compounds that interact with GPCRs” (Alchemia Limited, priority 2002, dated 2011)

Columns and labels:
MC4 = target: T1, MC4 (Homo sapiens, UniProt P32245); assay: GPCR radioligand binding (RLB) assay, melanocortin MC4, [125I]NDP-αMSH; conditions: 10 micromolar compound; recombinant human receptor membranes (HEK 293)
T1 construct: purchased Perkin Elmer BioSignal; host or cells: HEK 293
Summary of the method: (§1)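 Competition binding against radioligand ([125I]NDP-αMSH for MC4, [125I]SST-14 for SST5) on membranes of HEK 293 cells carrying the human receptor; buffer and incubation time optimized per receptor. Filtration through 0.5% PEI-treated glass fiber, washing, then scintillation counting.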

SST5 = target: T2, SST5 (Homo sapiens, UniProt P35346); assay: GPCR radioligand binding (RLB) assay, somatostatin SST5, [125I]SST-14; conditions: 10 micromolar compound; recombinant human receptor membranes (HEK 293)
T2 construct: purchased Perkin Elmer BioSignal; host or cells: HEK 293
T2 sequence (P35346 whole entry): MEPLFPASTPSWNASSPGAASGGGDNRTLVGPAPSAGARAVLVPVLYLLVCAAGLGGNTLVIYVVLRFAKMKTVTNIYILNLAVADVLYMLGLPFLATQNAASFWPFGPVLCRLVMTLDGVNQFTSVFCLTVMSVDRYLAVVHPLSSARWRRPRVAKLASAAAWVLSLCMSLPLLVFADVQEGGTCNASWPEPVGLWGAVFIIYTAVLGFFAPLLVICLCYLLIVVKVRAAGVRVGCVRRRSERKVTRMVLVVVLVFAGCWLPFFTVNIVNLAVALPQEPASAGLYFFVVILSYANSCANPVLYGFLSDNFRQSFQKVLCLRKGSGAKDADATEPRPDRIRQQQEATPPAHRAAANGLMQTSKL
Summary of the method: as §1

T1 sequence (P32245 whole entry): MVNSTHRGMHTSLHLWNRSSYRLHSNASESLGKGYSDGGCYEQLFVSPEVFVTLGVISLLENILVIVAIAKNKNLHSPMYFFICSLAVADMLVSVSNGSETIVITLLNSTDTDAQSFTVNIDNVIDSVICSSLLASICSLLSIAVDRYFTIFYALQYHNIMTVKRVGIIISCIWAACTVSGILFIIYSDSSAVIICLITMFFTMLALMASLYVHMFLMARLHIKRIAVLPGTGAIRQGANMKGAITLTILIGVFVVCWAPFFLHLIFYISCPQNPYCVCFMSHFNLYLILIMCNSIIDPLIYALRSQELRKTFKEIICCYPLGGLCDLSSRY

Row | SMILES | MC4 inhibition at 10 micromolar (MC4) | SST5 inhibition at 10 micromolar (SST5)
1 | COC1C(O)C(COCc2ccc(-c3ccccc3)cc2)OC(OCc2ccc(Cl)cc2)C1NC(=O)CCNC(=N)N (centres unmarked) [Compound 84] | + (Indicates inhibition greater than . . . 50%) | + (Indicates inhibition greater than . . . 50%)
2 | COC1C(O)C(COCc2ccc(-c3ccccc3)cc2)OC(OCc2ccc(Cl)cc2)C1NC(=O)CCCNC(=N)N (centres unmarked) [Compound 86] | + (Indicates inhibition greater than . . . 50%) | + (Indicates inhibition greater than . . . 50%)
3 | COC1C(O)C(COCc2ccc3ccccc3c2)OC(OCc2ccc(Cl)cc2)C1NC(=O)CNC(=N)N (centres unmarked) [Compound 87] | + (Indicates inhibition greater than . . . 50%) | + (Indicates inhibition greater than . . . 50%)
4 | COC1C(O)C(COCc2ccc3ccccc3c2)OC(OCc2ccc(Cl)cc2)C1NC(=O)CCNC(=N)N (centres unmarked) [Compound 88] | + (Indicates inhibition greater than . . . 50%) | + (Indicates inhibition greater than . . . 50%)
5 | COC1C(O)C(COCc2ccc3ccccc3c2)OC(OCc2ccc(Cl)cc2)C1NC(=O)CCCN (centres unmarked) [Compound 89] | + (Indicates inhibition greater than . . . 50%) | + (Indicates inhibition greater than . . . 50%)
6 | COC1C(O)C(COCc2ccc3ccccc3c2)OC(OCc2ccc(Cl)cc2)C1NC(=O)CCCNC(=N)N (centres unmarked) [Compound 90] | + (Indicates inhibition greater than . . . 50%) | + (Indicates inhibition greater than . . . 50%)
7 | CO[C@H]1[C@H](O)[C@@H](COCc2ccc(Cl)cc2)OC(OCc2ccc(Cl)cc2)[C@@H]1NC(=O)CCCN (some centres unmarked) [Compound 94] | + (Indicates inhibition greater than . . . 50%) | + (Indicates inhibition greater than . . . 50%)
8 | CO[C@H]1[C@H](O)[C@@H](COCc2ccc(-c3ccccc3)cc2)OC(OCCc2ccccc2)[C@@H]1NC(=O)CCCN (some centres unmarked) [Compound 98] | + (Indicates inhibition greater than . . . 50%) | + (Indicates inhibition greater than . . . 50%)
9 | CO[C@H]1[C@H](O)[C@@H](COCc2ccc3ccccc3c2)OC(OCCc2ccccc2)[C@@H]1NC(=O)CCCN (some centres unmarked) [Compound 102] | + (Indicates inhibition greater than . . . 50%) | + (Indicates inhibition greater than . . . 50%)
10 | CO[C@H]1[C@H](O)[C@@H](COCc2ccc3ccccc3c2)OC(OCCc2ccccc2)[C@@H]1NC(=O)CCCNC(=N)N (some centres unmarked) [Compound 103] | + (Indicates inhibition greater than . . . 50%) | + (Indicates inhibition greater than . . . 50%)
11 | CO[C@H]1[C@H](O)[C@@H](COCc2ccc(Cl)cc2)OC(OCCc2ccccc2)[C@@H]1NC(=O)CCCN (some centres unmarked) [Compound 106] | + (Indicates inhibition greater than . . . 50%) | + (Indicates inhibition greater than . . . 50%)
12 | CSC1OC(COCc2ccccc2)C(O)C(OCc2ccccc2)C1NC(=O)CNC(=N)N (centres unmarked) [Compound 120] | + (Indicates inhibition greater than . . . 50%) | + (Indicates inhibition greater than . . . 50%)
13 | CSC1OC(COCc2ccccc2)C(O)C(OCc2ccccc2)C1NC(=O)CCN (centres unmarked) [Compound 121] | + (Indicates inhibition greater than . . . 50%) | + (Indicates inhibition greater than . . . 50%)
14 | CSC1OC(COCc2ccccc2)C(O)C(OCc2ccccc2)C1NC(=O)CCNC(=N)N (centres unmarked) [Compound 122] | + (Indicates inhibition greater than . . . 50%) | + (Indicates inhibition greater than . . . 50%)
15 | CSC1OC(COCc2ccccc2)C(O)C(OCc2ccccc2)C1NC(=O)CCCNC(=N)N (centres unmarked) [Compound 124] | + (Indicates inhibition greater than . . . 50%) | + (Indicates inhibition greater than . . . 50%)
16 | CSC1OC(COCc2ccc(Cl)cc2)C(O)C(OCc2ccccc2)C1NC(=O)CNC(=N)N (centres unmarked) [Compound 126] | + (Indicates inhibition greater than . . . 50%) | + (Indicates inhibition greater than . . . 50%)
17 | CSC1OC(COCc2ccc(Cl)cc2)C(O)C(OCc2ccccc2)C1NC(=O)CCNC(=N)N (centres unmarked) [Compound 128] | + (Indicates inhibition greater than . . . 50%) | + (Indicates inhibition greater than . . . 50%)
18 | CSC1OC(COCc2ccc(Cl)cc2)C(O)C(OCc2ccccc2)C1NC(=O)CCCN (centres unmarked) [Compound 129] | + (Indicates inhibition greater than . . . 50%) | + (Indicates inhibition greater than . . . 50%)
19 | CSC1OC(COCc2ccc(Cl)cc2)C(O)C(OCc2ccccc2)C1NC(=O)CCCNC(=N)N (centres unmarked) [Compound 130] | + (Indicates inhibition greater than . . . 50%) | + (Indicates inhibition greater than . . . 50%)

Row | SMILES | MC4 inhibition at 10 micromolar (MC4) | SST5 inhibition at 10 micromolar (SST5)
20 | CSC1OC(COCc2ccc(-c3ccccc3)cc2)C(O)C(OCc2ccccc2)C1NC(=O)CNC(=N)N (centres unmarked) [Compound 132] | + (Indicates inhibition greater than . . . 50%) | + (Indicates inhibition greater than . . . 50%)
21 | CSC1OC(COCc2ccc(-c3ccccc3)cc2)C(O)C(OCc2ccccc2)C1NC(=O)CCN (centres unmarked) [Compound 133] | + (Indicates inhibition greater than . . . 50%) | + (Indicates inhibition greater than . . . 50%)
22 | CSC1OC(COCc2ccc(-c3ccccc3)cc2)C(O)C(OCc2ccccc2)C1NC(=O)CCNC(=N)N (centres unmarked) [Compound 134] | + (Indicates inhibition greater than . . . 50%) | + (Indicates inhibition greater than . . . 50%)
23 | CSC1OC(COCc2ccc(-c3ccccc3)cc2)C(O)C(OCc2ccccc2)C1NC(=O)CCCN (centres unmarked) [Compound 135] | + (Indicates inhibition greater than . . . 50%) | + (Indicates inhibition greater than . . . 50%)
24 | CSC1OC(COCc2ccc(-c3ccccc3)cc2)C(O)C(OCc2ccccc2)C1NC(=O)CCCNC(=N)N (centres unmarked) [Compound 136] | + (Indicates inhibition greater than . . . 50%) | + (Indicates inhibition greater than . . . 50%)
25 | CSC1OC(COCc2ccc3ccccc3c2)C(O)C(OCc2ccccc2)C1NC(=O)CN (centres unmarked) [Compound 137] | + (Indicates inhibition greater than . . . 50%) | + (Indicates inhibition greater than . . . 50%)
26 | CSC1OC(COCc2ccc3ccccc3c2)C(O)C(OCc2ccccc2)C1NC(=O)CNC(=N)N (centres unmarked) [Compound 138] | + (Indicates inhibition greater than . . . 50%) | + (Indicates inhibition greater than . . . 50%)
27 | CSC1OC(COCc2ccc3ccccc3c2)C(O)C(OCc2ccccc2)C1NC(=O)CCN (centres unmarked) [Compound 139] | + (Indicates inhibition greater than . . . 50%) | + (Indicates inhibition greater than . . . 50%)
28 | CSC1OC(COCc2ccc3ccccc3c2)C(O)C(OCc2ccccc2)C1NC(=O)CCNC(=N)N (centres unmarked) [Compound 140] | + (Indicates inhibition greater than . . . 50%) | + (Indicates inhibition greater than . . . 50%)
29 | CSC1OC(COCc2ccc3ccccc3c2)C(O)C(OCc2ccccc2)C1NC(=O)CCCN (centres unmarked) [Compound 141] | + (Indicates inhibition greater than . . . 50%) | + (Indicates inhibition greater than . . . 50%)
30 | CSC1OC(COCc2ccc3ccccc3c2)C(O)C(OCc2ccccc2)C1NC(=O)CCCNC(=N)N (centres unmarked) [Compound 142] | + (Indicates inhibition greater than . . . 50%) | + (Indicates inhibition greater than . . . 50%)
31 | CSC1OC(COCc2ccccc2)C(O)C(OCc2ccc(Cl)cc2)C1NC(=O)CNC(=N)N (centres unmarked) [Compound 144] | + (Indicates inhibition greater than . . . 50%) | + (Indicates inhibition greater than . . . 50%)
32 | CSC1OC(COCc2ccccc2)C(O)C(OCc2ccc(Cl)cc2)C1NC(=O)CCN (centres unmarked) [Compound 145] | + (Indicates inhibition greater than . . . 50%) | + (Indicates inhibition greater than . . . 50%)
33 | CSC1OC(COCc2ccccc2)C(O)C(OCc2ccc(Cl)cc2)C1NC(=O)CCNC(=N)N (centres unmarked) [Compound 146] | + (Indicates inhibition greater than . . . 50%) | + (Indicates inhibition greater than . . . 50%)
34 | CSC1OC(COCc2ccccc2)C(O)C(OCc2ccc(Cl)cc2)C1NC(=O)CCCNC(=N)N (centres unmarked) [Compound 148] | + (Indicates inhibition greater than . . . 50%) | + (Indicates inhibition greater than . . . 50%)
35 | CSC1OC(COCc2ccc(Cl)cc2)C(O)C(OCc2ccc(Cl)cc2)C1NC(=O)CNC(=N)N (centres unmarked) [Compound 150] | + (Indicates inhibition greater than . . . 50%) | + (Indicates inhibition greater than . . . 50%)
36 | CSC1OC(COCc2ccc(Cl)cc2)C(O)C(OCc2ccc(Cl)cc2)C1NC(=O)CCN (centres unmarked) [Compound 151] | + (Indicates inhibition greater than . . . 50%) | + (Indicates inhibition greater than . . . 50%)
37 | CSC1OC(COCc2ccc(Cl)cc2)C(O)C(OCc2ccc(Cl)cc2)C1NC(=O)CCNC(=N)N (centres unmarked) [Compound 152] | + (Indicates inhibition greater than . . . 50%) | + (Indicates inhibition greater than . . . 50%)
